The values below come from patent US9554573B2, “Binary insecticidal or pesticidal mixture” (BAYER CROPSCIENCE AKTIENGESELLSCHAFT, priority 2013, dated 2017).

In one test the test system is Phaedon cochleariae. As to the kind of experiment: Phaedon cochleariae spray test (Chinese cabbage leaf disks). In kind it is in vivo. Conditions: foliar, 144 h, after 6 d, read-out: Efficacy in % after 6 d (mortality). As for the experimental part:
Solvent: 78.0 parts by weight of acetone
• 1.5 parts by weight of dimethylformamide Emulsifier: 0.5 parts by weight of alkylaryl polyglycolether
To produce a suitable preparation of active compound, 1 part by weight of active compound is mixed with the stated amount of solvent and emulsifier, and the concentrate is diluted with emulsifier—containing water to the desired concentration. To produce a suitable preparation of a spore suspension the spores are diluted with emulsifier—containing water to the desired concentration.
Chinese cabbage (Brassica pekinensis) leaf-disks are sprayed with a preparation of the active ingredient of the desired concentration. Once dry, the leaf disks are infested with mustard beetle larvae (Phaedon cochleariae).
After the specified period of time, mortality in % is determined. 100% means all beetle larvae have been killed and 0% means none of the beetle larvae have been killed. The mortality values determined thus are recalculated using the Colby-formula (see sheet 1).

Another test deals with Spodoptera frugiperda. Kind of test: Spodoptera frugiperda spray test (maize leaf sections). Conditions: 144 h, after 6 d, read-out: Efficacy in % after 6 d (mortality). Format: in vivo. As for the experimental part:
Solvent: 78.0 parts by weight acetone
• 1.5 parts by weight dimethylformamide Emulsifier: 0.5 parts by weight alkylarylpolyglycolether
To produce a suitable preparation of the active compound, 1 part by weight of active compound is mixed with the stated amount of solvent and emulsifier, and the concentrate is diluted with emulsifier-containing water to the desired concentration. To produce a suitable preparation of a spore suspension the spores are diluted with emulsifier—containing water to the desired concentration.
Maize (Zea mais) leaf sections are sprayed with a preparation of the active ingredient of the desired concentration. Once dry, the leaf sections are infested with fall armyworm larvae (Spodoptera frugiperda).
After the specified period of time, mortality in % is determined. 100% means all caterpillars have been killed and 0% means none of the caterpillars have been killed. The mortality values determined thus are recalculated using the Colby-formula (see sheet 1).

Broadly, the mortality is the percentage killed.

For the molecule `Cc1cc(C(F)(C(F)(F)F)C(F)(F)F)ccc1NC(=O)c1cccc(Cl)c1C(=O)NC(C)(C)C#N` [(I-5)], the mortality at 2.5 g/ha in the test on Phaedon cochleariae (2.5 g ai/ha) turned out to be 0%. Also, in the test on Phaedon cochleariae (12 g ai/ha), the mortality at 12 g/ha was found to be 0%. The mortality at 0.25 g/ha in the test with Spodoptera frugiperda (0.25 g ai/ha) is 0%. Moreover, the mortality at 0.8 g/ha in the test with Spodoptera frugiperda (0.8 g ai/ha) is 33%. In addition, the mortality at 3 g/ha in the test on Spodoptera frugiperda (3 g ai/ha) turned out to be 33%.
